Test results reported in patent US9079880B2, “Rho kinase inhibitors” (Boehringer Ingelheim International GmbH, priority 2010, dated 2015).

What follows are molecules tested against T1, ROCKII (1-543) (Homo sapiens (Human), UniProt O75116) (assay: IMAP Assay (fluorescence polarization, FAM S6 peptide)). Settings: 100 μM ATP, 200 nM FAM S6 peptide, 1 nM kinase; read-out: Assay 2 IC50.
Assay type: biochemical
Protocol: This assay is performed using FAM S6 substrate peptide (Catalogue #R7184) and IMAP FP Screening Express Kit detection reagents from Molecular Devices (Sunnyvale, Calif.) in IMAP kinase reaction buffer (Tris-HCl, pH 7.2, 10 mM MgCl2, 0.05% NaN3, 0.1% phosphate-free BSA) containing 1 mM DTT. Test compounds dissolved in neat DMSO at 0.3 mg/mL are serially diluted 1 to 3 for concentration response in 100% DMSO. The DMSO serial dilutions are further diluted 33.33-fold in kinase reaction buffer, and 10 μL of this buffer dilution is transferred to Corning black 96-well half area NBS plates for a final top concentration of 3 μg/mL in 1% DMSO. 10 μL aliquot of 3 nM ROCKII (1-543) diluted in kinase reaction buffer is added to each assay well for a final concentration of 1 nM kinase. 10 μL of a mixture of 600 nM FAM S6 peptide and 300 μM ATP diluted in kinase reaction buffer is added to each well for a final concentration of 200 nM peptide and 100 μM ATP. The kinase reaction mixture is incubated for 60 minutes at room temperature. Positive controls are reaction mixtures containing no test compound and negative controls (blanks) are reaction mixtures containing no kinase. The kinase reaction is stopped by addition of 60 μL IMAP progressive binding reagent (Catalog #R7284) diluted 400-fold in 1× Binding buffer A. After 30 min of incubation at room temperature, the plates are read for fluorescence polarization on Analyst Plate Reader using Ex 485 nm, Em 530 nm, and FL 505 dichroic mirror. The mP signals are converted to percent of control (POC) values using the formula: POC=100*(Signal−BCTRL)÷(PCTRL−BCTRL)
Where Signal is the test well signal, BCTRL is the average of background (negative control) well signals on the plate and PCTRL is the average of positive control well signals on the plate. For the concentration-responsive compounds, POC as a function of test compound concentration is fitted to a 4-parameter logistic equation of the form: Y=A+(B−A)/[1+(x/C)D] Where A, B, C, and D are fitted parameters (parameter B is fixed at zero POC), and x and y are the independent and dependent variables, respectively. The IC50 is determined as the inflection point parameter, C.
Target sequence in this assay (O75116 1-543, species assumed): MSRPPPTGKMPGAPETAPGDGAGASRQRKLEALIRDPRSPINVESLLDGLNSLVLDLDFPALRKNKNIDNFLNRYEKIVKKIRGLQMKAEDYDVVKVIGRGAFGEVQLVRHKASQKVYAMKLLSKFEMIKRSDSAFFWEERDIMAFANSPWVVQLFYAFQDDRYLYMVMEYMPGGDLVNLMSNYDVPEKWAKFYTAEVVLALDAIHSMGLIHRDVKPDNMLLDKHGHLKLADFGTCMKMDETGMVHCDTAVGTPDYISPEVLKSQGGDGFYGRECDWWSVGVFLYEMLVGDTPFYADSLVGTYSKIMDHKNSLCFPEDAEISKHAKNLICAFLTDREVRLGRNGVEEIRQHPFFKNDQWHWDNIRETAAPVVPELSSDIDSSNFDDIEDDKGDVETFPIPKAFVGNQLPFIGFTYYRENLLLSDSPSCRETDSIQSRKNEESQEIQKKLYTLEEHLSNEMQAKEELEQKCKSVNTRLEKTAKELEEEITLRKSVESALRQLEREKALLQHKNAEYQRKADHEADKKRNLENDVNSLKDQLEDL

IC50 [nM]	Structure (SMILES)
1.7	N#Cc1ccn2cc(C(=O)N3CCC[C@@H]3c3cccc(C(=O)Nc4nc5c(s4)C[C@@H](N4CCOCC4)CC5)c3)nc2c1 [Compound 82]
1.7	CN(C)[C@H]1CCc2nc(NC(=O)c3cccc([C@H]4CCCN4C(=O)c4cn5cc(C(N)=O)ccc5n4)c3)sc2C1 [Compound 104]
4.2	O=C(Nc1nc2c(s1)C[C@@H](N1CCOCC1)CC2)c1cccc([C@H]2CCCN2C(=O)c2cc(-c3ccncc3)[nH]n2)c1 [Compound 138]
1.3	CN(C)[C@H]1CCc2nc(NC(=O)c3cccc([C@H]4CCCN4C(=O)c4csc(-c5cccnc5)n4)c3)sc2C1 [Compound 92]
3.8	CN(C)[C@H]1CCc2nc(NC(=O)c3cccc([C@H]4CCCN4C(=O)c4ccc(-c5ccncc5)cc4)c3)sc2C1 [Compound 88]
1.9	CN(C)[C@H]1CCc2nc(NC(=O)c3cccc([C@H]4CCCN4C(=O)c4cccc(-c5cn[nH]c5)c4)c3)sc2C1 [Compound 106]
0.3	CN(C)[C@H]1CCc2nc(NC(=O)c3cccc([C@H]4CCCN4C(=O)Nc4cccc(C#N)c4)c3)sc2C1 [Compound 37]
2	CN(C)[C@H]1CCc2nc(NC(=O)c3cccc([C@H]4CCCN4C(=O)c4ccc5cc(O)ccc5c4)c3)sc2C1 [Compound 100]

What follows are molecules tested against T1, ROCKII (1-543) (assay: Luciferin-Luciferase Assay (PKLight ATP detection)). Settings: 750 nM ATP, 500 nM peptide, 7.5 nM kinase.
Assay type: biochemical
Protocol: 1. Luciferin-Luciferase Assay
The activity of ROCKII (1-543) kinase was measured utilizing Cambrex PKLight ATP Detection Reagent, a homogeneous assay technology using luciferin-luciferase to quantify residual ATP. The assay was performed in 384-well low-volume, white, non-binding surface microtiter plates (Corning). The assay buffer was 25 mM HEPES, pH 7.5, 10 mM MgCl2, 50 mM KCl, 0.2% BSA, 0.01% CHAPS, 100 μM Na3VO4 and 0.5 mM DTT. Test compounds, dissolved in neat DMSO at 500 μg/mL, were serially diluted for dose response for a final starting concentration of 3 μg/mL in 1% DMSO of assay buffer. ROCKII (1-543) (62,408Da) was diluted in assay buffer to a final concentration of 7.5 nM in a total volume of 15 μL. Positive controls were reaction mixtures containing no test compound; negative controls (blanks) were reaction mixtures containing no kinase. After 15 minutes of pre-incubation of the test compounds with the kinase, a mixture of ATP and peptide substrate ([…]) in assay buffer was added to each well for a final concentration of 750 nM ATP and 500 nM peptide, respectively. After 90 minutes of incubation of the kinase reaction at 28° C. temperature, 10 μL of PKLight ATP Detection Reagent (warmed to room temperature previously) was added to each well. The assay plate was incubated at room temperature for additional 15 minutes and then read on an Analyst in luminescence mode. Dose-response experiments for each of the test compounds were conducted in quadruplet. IC50 values of test compounds represent 50% response of the positive control from the dose-response curve.
Target sequence in this assay (O75116 1-543): as the sequence (O75116 1-543, species assumed) above

IC50 [nM]	Structure (SMILES)
20.8	CN1CCc2nc(NC(=O)c3cccc([C@H]4CCCN4C(=O)c4ccc5[nH]c(=O)ccc5c4)c3)sc2C1 [Compound 84]
38.1	CCCC[C@@H](NC(=O)c1ccc(OC)c(Cl)c1)c1cccc(C(=O)Nc2nc3c(s2)CN(C)CC3)c1 [Compound 8]
77.5	CN1CCc2nc(NC(=O)c3cccc(C4CCCN(C(=O)Nc5cccc(C#N)c5)C4)c3)sc2C1 (centres unmarked) [Compound 115]
19.1	CN1CCc2nc(NC(=O)c3cccc(N4CCC[C@@H]4C(=O)Nc4ccc(C#N)cc4)c3)sc2C1 [Compound 5, (R)-1-[3-(5-methyl-4,5,6,7-tetrahydro-thiazolo[5,4-c]pyridin-2-ylcarbamoyl)-phenyl]-pyrrolidine-2-carboxylic acid (4-cyano-phenyl)-amide]
5.4	CN1CCc2nc(NC(=O)c3cccc(C4CCCN4C(=O)Nc4ccc(C(N)=O)cc4)c3)sc2C1 (centres unmarked) [Compound 77]
8.9	COc1ccc(C(=O)N[C@H](C)c2cccc(C(=O)Nc3ccc4c(c3)CN(C)CC4)c2)cc1OC [Compound 141]
33.4	Cc1c(C(=O)N2CCC[C@@H]2c2cccc(C(=O)Nc3nc4c(s3)CN(C)CC4)c2)nnn1-c1nonc1N [Compound 30]
2.8	COc1ccc(C(=O)N[C@@H](c2cccc(C(=O)Nc3nc4c(s3)CN(C)CC4)c2)C2CC2)cc1Cl [Compound 2]
74.4	CN1CCc2nc(NC(=O)c3cccc(C4CCCN4C(=O)Nc4ccc(C#N)cc4)c3)sc2C1 (centres unmarked) [Compound 61]
10.5	COc1ccc(C(=O)N[C@H](C)c2cccc(C(=O)Nc3ccc4c(c3)CN(C)CC4)c2)cc1C [Compound 145]
5.7	CC[C@@H](NC(=O)Nc1cccc(C#N)c1)c1cccc(C(=O)Nc2nc3c(s2)CN(C)CC3)c1 [Compound 10]
45.7	CN1CCc2nc(NC(=O)c3cccc([C@H](NC(=O)Nc4ccc(C#N)cc4)C4CC4)c3)sc2C1 [Compound 157]
57.5	C[C@@H](NC(=O)Nc1ccc(C#N)cc1)c1cccc(C(=O)Nc2ccc3c(c2)CN(C)CC3)c1 [Compound 149]
12.5	N#Cc1cccc(NC(=O)N2CCC[C@@H]2c2cccc(C(=O)Nc3nc4c(s3)CN(Cc3ccccc3)CC4)c2)c1 [Compound 105]
35	C[C@@H](Oc1cccc(C(=O)Nc2nc3c(s2)CN(C)CC3)c1)C(=O)Nc1ccc(C#N)cc1 [Compound 19, 3-[(R)-1-(4-cyano-phenylcarbamoyl)-ethoxy]-N-(5-methyl-4,5,6,7-tetrahydro-thiazolo[5,4-c]pyridin-2-yl)-benzamide]
17.8	N#Cc1cccc(NC(=O)N2CCCC2c2cccc(C(=O)Nc3ccc4c(c3)CNCC4)c2)c1 (centres unmarked) [Compound 47, 2-[3-(1,2,3,4-tetrahydro-isoquinolin-7-ylcarbamoyl)-phenyl]-pyrrolidine-1-carboxylic acid (3-cyano-phenyl)-amide trifluoroacetic acid]
9.7	CN1CCc2nc(NC(=O)c3cccc([C@H](NC(=O)Nc4cccc(C#N)c4)C4CC4)c3)sc2C1 [Compound 155]
37.8	C[C@H](NC(=O)Nc1ccc(C#N)cc1)c1cccc(C(=O)Nc2nc3c(s2)CN(C)CC3)c1 [Compound 83]
44.9	CN1CCc2nc(NC(=O)c3cccc([C@H]4CCCN4C(=O)c4ccc(-c5cc[nH]n5)cc4)c3)sc2C1 [Compound 86]

IC50 [nM]	Structure (SMILES)
9.5	C[C@@H](NC(=O)Nc1ccc(C(N)=O)cc1)c1cccc(C(=O)Nc2ccc3c(c2)CN(C)CC3)c1 [Compound 153]
22.4	CCCC[C@@H](NC(=O)Nc1cccc(C#N)c1)c1cccc(C(=O)Nc2nc3c(s2)CN(C)CC3)c1 [Compound 4]
15.3	CN1CCc2nc(NC(=O)c3cccc([C@H]4CCCN4C(=O)Nc4ccc(C#N)cc4)c3)sc2C1 [Compound 38]
18.7	CN1CCc2nc(NC(=O)c3cccc(C4CCCCN4C(=O)Nc4ccc(C#N)cc4)c3)sc2C1 (centres unmarked) [Compound 117]
22.4	C[C@@H](NC(=O)Nc1ccc(C#N)cc1)c1cccc(C(=O)Nc2nc3c(s2)CN(C)CC3)c1 [Compound 85]
39.3	CN1CCc2nc(NC(=O)c3cccc(C4CCCCN4C(=O)Nc4cccc(C#N)c4)c3)sc2C1 (centres unmarked) [Compound 111]
5.5	C[C@@H](NC(=O)Nc1cccc(C#N)c1)c1cccc(C(=O)Nc2nc3c(s2)CN(C)CC3)c1 [Compound 81]
23.1	CC[C@@H](NC(=O)Nc1ccc(C#N)cc1)c1cccc(C(=O)Nc2nc3c(s2)CN(C)CC3)c1 [Compound 12]
21.2	CN1CCc2nc(NC(=O)c3cccc([C@H]4CNC[C@@H]4C(=O)Nc4ccc(C#N)cc4)c3)sc2C1 [Compound 15]
12.5	Cc1nc(-c2ccncc2)sc1C(=O)N1CCC[C@@H]1c1cccc(C(=O)Nc2nc3c(s2)CN(C)CC3)c1 [Compound 24]
20.9	N#Cc1cccc(NC(=O)N2CCCC2c2cccc(C(=O)Nc3nc4c(s3)CN(Cc3ccccc3)CC4)c2)c1 (centres unmarked) [Compound 57]
14	COc1ccc(C(=O)N[C@H](C)c2cccc(C(=O)Nc3ccc4c(c3)CN(C)CC4)c2)cc1Cl [Compound 143]
11.5	N#Cc1cccc(NC(=O)N2CCC[C@@H]2c2cccc(C(=O)Nc3ccc4c(c3)CNCC4)c2)c1 [Compound 53]
3.8	CC[C@@H](NC(=O)c1ccc(OC)c(Cl)c1)c1cccc(C(=O)Nc2nc3c(s2)CN(C)CC3)c1 [Compound 14]
25.5	CN1CCc2nc(NC(=O)c3cccc([C@H]4CCCN4C(=O)c4cn5cc(C#N)ccc5n4)c3)sc2C1 [Compound 150]
22.4	CN1CCc2ccc(NC(=O)c3cccc(C4CCCN4C(=O)Nc4cccc(C#N)c4)c3)cc2C1 (centres unmarked) [Compound 59]
95.5	CN1CCc2nc(NC(=O)c3cccc(N4CCC[C@@H]4C(=O)Nc4cccc(C#N)c4)c3)sc2C1 [Compound 21]
9.5	CN1CCc2ccc(NC(=O)c3cccc([C@H]4CCCN4C(=O)Nc4cccc(C#N)c4)c3)cc2C1 [Compound 109]
18.9	C[C@@H](NC(=O)Nc1cccc(C#N)c1)c1cccc(C(=O)Nc2ccc3c(c2)CN(C)CC3)c1 [Compound 147]

Structure (SMILES)	IC50 [nM]
CN1CCc2nc(NC(=O)c3cccc(C4CCCN4C(=O)Nc4cccc(C#N)c4)c3)sc2C1 (centres unmarked) [Compound 55]	8.8
